For one experiment, the system named is striatal acetylcholine. Put plainly: In vivo microdialysis, striatal ACh release. Also on record: species or system Male Sprague-Dawley rats. The note with it: low dose in combination with DHX. An excerpt: (§1) The in vivo microdialysis technique is a method for evaluating the effects of drugs on brain neurotransmitter systems by monitoring the extracellular concentration of neurotransmitters and metabolites in awake freely-moving animals. Probes are implanted directly into the brain of rats and serve to continuously sample the extracellular fluid in the vicinity of the probe. Samples containing the dialyzed extracellular fluid are collected at the outlet of the perfusion system and analyzed for content of brain neurotransmitters and metabolites by high-performance liquid chromatography coupled with electrochemical detection (HPLC-EC).
Male Sprague-Dawley rats weighing 250-350 g were group housed (n=3 per cage) in a temperature-controlled room (23±2° C.) on a 14/10 hr light cycle with free access to food and water. After the surgical procedure, animals were placed in individual cages.
The surgical procedure involved the implantation and fixation of a probe holder/guide cannula to the skull of anesthetized rats. The guide cannula was the attachment site for the rigid concentric microdialysis probes which were implanted into the awake, fully-recovered rat at the onset of the experiment. […] For placement of the guide cannulae, rats were anesthetized with ketamine:xylazine (87:13 mg/kg), shaved and placed in a stereotaxic frame (Narashige Instruments). An incision was made to expose the skull and a small hole was drilled to expose the dura mater for placement of the guide. Guide cannulae were implanted in the striatum according to the following stereotaxic coordinates with reference to bregma: AP -+1.5 mm, L -+2.6 mm and V to dura -2.5 mm (Paxinos and Watson, The rat brain in stereotaxic coordinates, 2nd. ed., Academic Press, London, 1986). The microdialysis probe extended 3.0 mm beyond the tip of the guide cannula which yielded a final ventral placement of 5.5 mm below the dura. The coordinates for placement of the guide into frontal cortex were: AP -+3.0 mm, L -+2.8 mm and V to dura 0 mm, with the probe extending 3.0 mm below the dura. Guide cannulae were fixed to the skull with dental acrylic and anchor screws and a dummy cannula was inserted into each guide for the recovery period. Animals were returned to their home cage and allowed to recover from surgery for 24-48 hrs.
For each experiment, the dialysis probe was connected to a microinfusion pump (CMA-100; Bioanalytical Systems (BAS); W. Lafayette, Ind.) equipped with a liquid switch (CMA-110; BAS) via low dead volume fused-silica tubing (I.D.=75 um; O.D.=150 um). At the time of experiment, the dummy cannula was removed and the probe was inserted through the guide into the conscious animal under light restraint.
The probe was perfused continuously with artificial CSF (composition in Mm: 121 NaCl, 3.5 KCl, 1.2 CaCl2, 1.2 MgCl2, 1.0 NaH2 PO4, 25 NaHCO3, and 0.001 neostigmine) at a flow rate of 1.5 ul/min. Dialysate samples were collected every 20 min (total sample volume=30 μl). A 20 ul aliquot was analyzed immediately for acetylcholine (ACh) content by high-performance liquid chromatography with electrochemical detection (HPLC-EC) (see below for details). A baseline period of at least one hour was allowed prior to invoking any experimental manipulations. […] Sample collection proceeded for a minimum of 3 hrs following drug administration. Upon completion of the experiment, animals were sacrificed by decapitation and brains examined grossly to verify probe placement.
DHX and SKF 81297, another D1 agonist (Andersen et al., Eur J Pharmacol 188:335, 1990), were administered ip after a stable baseline of ACh release was established in each animal. […] The effects of DHX on ACh release were evaluated in two brain regions associated with cognition (striatum, frontal cortex).

Experiment [1] deals with CADs due to lesions of the medial projection of the basal forebrain to the cortex. The note with it: cited from earlier work.
The subject of experiment [2] is acetylcholine release in the frontal cortex. Nature of the experiment: In vivo microdialysis, frontal cortex ACh release. Also on record: species or system Male Sprague-Dawley rats. The note with it: low dose in combination with DHX; listed as SCH 23390.
Text: as §1, with “(HPLC-EC). […]” for “(HPLC-EC).”
The probe was perfused continuously with artificial CSF (composition in Mm: 121 NaCl, 3.5 KCl, 1.2 CaCl2, 1.2 MgCl2, 1.0 NaH2 PO4, 25 NaHCO3, and 0.001 neostigmine) at a flow rate of 1.5 ul/min. […] A 20 ul aliquot was analyzed immediately for acetylcholine (ACh) content by high-performance liquid chromatography with electrochemical detection (HPLC-EC) (see below for details). […]
DHX and SKF 81297, another D1 agonist (Andersen et al., Eur J Pharmacol 188:335, 1990), were administered ip after a stable baseline of ACh release was established in each animal. […] The effects of DHX on ACh release were evaluated in two brain regions associated with cognition (striatum, frontal cortex). […]

Experiment [3] deals with behavioral effects previously associated with D2 antagonists. The note with it: in vivo; cited from earlier work.
The next experiment has as its system striatal ACh output. The note with it: 0.3 mg/kg; cited from earlier work.
The test system of another experiment is cortical ACh release. The note with it: in vivo; cited from earlier work.

“Also recorded” adds a separate entry of the source.

Take `CN1CCc2cc(Cl)c(O)cc2[C@@H](c2ccccc2)C1` [SCH23390]: the “stimulatory effect of DHX on striatal ACh release (blockade)” value is reported as “completely block the stimulatory effect of DHX on striatal ACh release” in the experiment with striatal acetylcholine and “completely block the stimulatory effect of administering DHX on striatal acetylcholine release” in the experiment on striatal acetylcholine (listed as SCH 23390). Also, the “choice accuracy deficits due to lesions” value in experiment [1] is listed as “reversed CADs due to lesions of the medial projection of the basal forebrain to the cortex”. Besides, in experiment [2], the “stimulatory effect of DHX on ACh release in the frontal cortex (blockade)” value was “completely block the stimulatory effect of administering DHX on acetylcholine release in the frontal cortex; also recorded: sensitive to antagonism by SCH 23390”. Also, in experiment [3], the behavioral effects entry was “mimic some of the behavioral effects previously associated with D2 antagonists”. Moreover, the “effect of D1 agonist on striatal ACh output (blockade)” value in the experiment with striatal ACh output is recorded as “blocked”. Further, the “D1 agonist-induced increase in cortical ACh release (blockade)” value in the experiment on cortical ACh release was “blocked selectively”.

The record behind these values is US5744476A, “Dopamine D1 agonists for the treatment of dementia” (Interneuron Pharmaceuticals, Inc., priority 1994, dated 1998).
